Results as given in patent publication US20110217713A1 (On-Q-ity, priority 2010, published 2011).

Tested on: non-small cell lung cancer patient specimens (adenocarcinomas and squamous cell carcinoma)
Test: International Adjuvant Lung Trial (IALT): cisplatin-based therapy vs observation, DFS/OS against IHC DNA repair biomarker Q-scores (Cox PH models)
Assay type: in vivo, human
Protocol: An immunohistochemical evaluation of DNA Repair Proteins was conducted on a large international patient specimen collection from the IALT trial (International Adjuvant Lung Trial). This clinical trial originally comprised approximately 1867 non-small cell lung cancer patient specimens (adenocarcinomas and squamous cell carcinoma) and was designed to test clinical parameters for patients receiving either cisplatin-based therapy or those considered observation. One problem with testing of biomarkers in general from clinical trials is that the patient population treatments are generally a mixture of several different treatments and combinations of such and so results may be confounded by interactions of various treatments. However, the IALT trial represents pristine treatment arms of cisplatin and observation and thus is relatively free of confounding affects due to treatment variation.
International Adjuvant Lung Cancer Trial (IALT) NSCLC FFPE patient specimens constructed on TMAs (13 total) were stained by IHC for DNA repair biomarkers: ATM, MSH2, ERCC1, p53, pMK2, PARP1, BRCA1, XPF. An average of 603 patients were analyzed for each biomarker. Tumor biomarker nuclear or cytoplasmic levels were determined using digital image user defined macros. Scores were generated based on weighted intensity and quantity of stained cells. In reference to accompanying diagrams in the Powerpoint files, please note that a wide dynamic range achieved during assay development and optimization in commercially available TMAs is translationally achieved when patients comprising this study population are stained, annotated for tumor region and scored by user-defined macros.
Previous studies have utilized standard pathologist-based scoring, thus we chose to optimize the IHC-based assessment of biomarker levels using digital pathology and weighted scoring. This endeavor is undertaken so that for a given population a continuum of scores (herein referred to as Q-scores) with a broad dynamic range may be generated by user defined macros. Here, scoring of individual tumor cells comprising each patient specimen is generated and then patients assembled into a population continuum of scores against which finer cut-points may tested and established rather than crude binning methods as employed in previous studies.
Q-score=10*(% of 10+cells)+9*(% of 9+cells)+8*(% of 8+cells)+7*(% of 7+cells) . . . 1*(% of 1+cells)
Cox PH models adjusted for relevant clinical and stratification variables were used in the univariate analyses of Disease-Free Survival (DFS) and Overall Survival (OS). Initial analyses were conducted using biomarker Q scores as continuous variables against clinical endpoint metrics.

[1] = ATM model, ADENOCARCINOMA, With adjustment variables
[2] = ATM model, ADENOCARCINOMA, With selected variables
[3] = ATM model, ADENOCARCINOMA, Without variables
[4] = ATM model, SQUAMOUS CELLS, With adjustment variables
[5] = ATM model, SQUAMOUS CELLS, With selected variables
[6] = ATM model, SQUAMOUS CELLS, Without variables
[7] = BRCA1 model, ADENOCARCINOMA, With adjustment variables
[8] = BRCA1 model, ADENOCARCINOMA, With selected variables
[9] = BRCA1 model, ADENOCARCINOMA, Without variables
[10] = BRCA1 model, SQUAMOUS CELLS, With adjustment variables
[11] = BRCA1 model, SQUAMOUS CELLS, With selected variables
[12] = BRCA1 model, SQUAMOUS CELLS, Without variables
[13] = Cox PH model with PMK2MC, with adjustment variables, histology heading not shown
[14] = Disease Free Survival, MEAN Q SCORE OF PMK2 CYTOPLASM DIVIDED BY NUCLEAR, Adenocarcinoma, With selected variables
[15] = Disease Free Survival, MEAN Q SCORE OF PMK2 CYTOPLASM DIVIDED BY NUCLEAR, Adenocarcinoma, Without variables
[16] = Disease Free Survival, MEAN Q SCORE PMK2 CYTOPLASM, Adenocarcinoma, With adjustment variables
[17] = Disease Free Survival, MEAN Q SCORE PMK2 CYTOPLASM, Adenocarcinoma, With selected variables
[18] = Disease Free Survival, MEAN Q SCORE PMK2 CYTOPLASM, Adenocarcinoma, Without variables
[19] = Disease Free Survival, MEAN Q SCORE PMK2 CYTOPLASM, Squamous Cells, With adjustment variables
[20] = Disease Free Survival, MEAN Q SCORE PMK2 CYTOPLASM, Squamous Cells, With selected variables
[21] = Disease Free Survival, MEAN Q SCORE PMK2 CYTOPLASM, Squamous Cells, Without variables
[22] = Disease Free Survival, MEAN Q SCORE PMK2 NUCLEAR, Adenocarcinoma, With adjustment variables
[23] = Disease Free Survival, MEAN Q SCORE PMK2 NUCLEAR, Adenocarcinoma, With selected variables
[24] = Disease Free Survival, MEAN Q SCORE PMK2 NUCLEAR, Adenocarcinoma, Without variables
[25] = Disease Free Survival, MEAN Q SCORE PMK2 NUCLEAR, Squamous Cells, With adjustment variables
[26] = Disease Free Survival, MEAN Q SCORE PMK2 NUCLEAR, Squamous Cells, With selected variables
[27] = Disease Free Survival, MEAN Q SCORE PMK2 NUCLEAR, Squamous Cells, Without variables
[28] = Disease Free Survival, MEAN Q SCORE SUM OF PMK2 CYTOPLASM & NUCLEAR, Adenocarcinoma, With adjustment variables
[29] = Disease Free Survival, MEAN Q SCORE SUM OF PMK2 CYTOPLASM & NUCLEAR, Adenocarcinoma, With selected variables
[30] = Disease Free Survival, MEAN Q SCORE SUM OF PMK2 CYTOPLASM & NUCLEAR, Adenocarcinoma, Without variables
[31] = Disease Free Survival, MEAN Q SCORE SUM OF PMK2 CYTOPLASM & NUCLEAR, Squamous Cells, With adjustment variables
[32] = Disease Free Survival, MEAN Q SCORE SUM OF PMK2 CYTOPLASM & NUCLEAR, Squamous Cells, With selected variables
[33] = Disease Free Survival, MEAN Q SCORE SUM OF PMK2 CYTOPLASM & NUCLEAR, Squamous Cells, Without variables
[34] = ERCC1 model, ADENOCARCINOMA, With adjustment variables

SMILES: N.N.[Cl][Pt][Cl] [cisplatin]
- HazardRatio, ATM_Treatment [1]: 0.941
- HazardRatio, Treatment [1]: 1.033
- HazardRatio, ATM_Treatment [2]: 0.993
- HazardRatio, Treatment [2]: 1.004
- HazardRatio, ATM_Treatment [3]: 0.972
- HazardRatio, Treatment [3]: 1.142
- HazardRatio, ATM_Treatment [4]: 1.172
- HazardRatio, Treatment [4]: 0.625
- HazardRatio, ATM_Treatment [5]: 1.172
- HazardRatio, Treatment [5]: 0.640
- HazardRatio, ATM_Treatment [6]: 1.148
- HazardRatio, Treatment [6]: 0.659
- HazardRatio, BRCA1_Treatment [7]: 1.022
- HazardRatio, Treatment [7]: 0.895
- HazardRatio, BRCA1_Treatment [8]: 1.027
- HazardRatio, Treatment [8]: 0.954
- HazardRatio, BRCA1_Treatment [9]: 0.844
- HazardRatio, Treatment [9]: 1.391
- HazardRatio, BRCA1_Treatment [10]: 1.043
- HazardRatio, Treatment [10]: 0.819
- HazardRatio, BRCA1_Treatment [11]: 1.048
- HazardRatio, Treatment [11]: 0.831
- HazardRatio, BRCA1_Treatment [12]: 1.028
- HazardRatio, Treatment [12]: 0.852
- HazardRatio, PMK2MC_Treatment interaction (Disease Free Survival) [13]: 1.244
- HazardRatio, Treatment (Disease Free Survival) [13]: 0.787
- HazardRatio, Treatment (Disease Free Survival, MEAN Q SCORE OF PMK2 CYTOPLASM DIVIDED BY NUCLEAR, Adenocarcinoma, With adjustment variables): 0.790
- HazardRatio, PMK2MCNp_Treatment [14]: 31E22
- HazardRatio, Treatment [14]: 0.827
- HazardRatio, PMK2MCNp_Treatment [15]: 263.6
- HazardRatio, Treatment [15]: 0.997
- HazardRatio, Treatment (Disease Free Survival, MEAN Q SCORE OF PMK2 CYTOPLASM DIVIDED BY NUCLEAR, Squamous Cells, With adjustment variables): 0.643
- HazardRatio, Treatment (Disease Free Survival, MEAN Q SCORE OF PMK2 CYTOPLASM DIVIDED BY NUCLEAR, Squamous Cells, With selected variables): 0.681
- HazardRatio, Treatment (Disease Free Survival, MEAN Q SCORE OF PMK2 CYTOPLASM DIVIDED BY NUCLEAR, Squamous Cells, Without variables): 0.755
- HazardRatio, PMK2MC_Treatment [16]: 1.163
- HazardRatio, Treatment [16]: 0.862
- HazardRatio, PMK2MC_Treatment [17]: 1.096
- HazardRatio, Treatment [17]: 0.874
- HazardRatio, PMK2MC_Treatment [18]: 0.647
- HazardRatio, Treatment [18]: 1.173
- HazardRatio, PMK2MC_Treatment [19]: 1.206
- HazardRatio, Treatment [19]: 0.804
- HazardRatio, PMK2MC_Treatment [20]: 1.203
- HazardRatio, Treatment [20]: 0.827
- HazardRatio, PMK2MC_Treatment [21]: 1.134
- HazardRatio, Treatment [21]: 0.846
- HazardRatio, PMK2MN_Treatment [22]: 1.094
- HazardRatio, Treatment [22]: 0.815
- HazardRatio, PMK2MN_Treatment [23]: 1.087
- HazardRatio, Treatment [23]: 0.816
- HazardRatio, PMK2MN_Treatment [24]: 0.911
- HazardRatio, Treatment [24]: 1.145
- HazardRatio, PMK2MN_Treatment [25]: 1.126
- HazardRatio, Treatment [25]: 0.758
- HazardRatio, PMK2MN_Treatment [26]: 1.129
- HazardRatio, Treatment [26]: 0.775
- HazardRatio, PMK2MN_Treatment [27]: 1.107
- HazardRatio, Treatment [27]: 0.789
- HazardRatio, PMK2MCNs_Treatment [28]: 1.064
- HazardRatio, Treatment [28]: 0.824
- HazardRatio, PMK2MCNs_Treatment [29]: 1.056
- HazardRatio, Treatment [29]: 0.829
- HazardRatio, PMK2MCNs_Treatment [30]: 0.915
- HazardRatio, Treatment [30]: 1.174
- HazardRatio, PMK2MCNs_Treatment [31]: 1.078
- HazardRatio, Treatment [31]: 0.772
- HazardRatio, PMK2MCNs_Treatment [32]: 1.079
- HazardRatio, Treatment [32]: 0.791
- HazardRatio, PMK2MCNs_Treatment [33]: 1.062
- HazardRatio, Treatment [33]: 0.808
- HazardRatio, ERCC1_Treatment [34]: 1.170
- HazardRatio, Treatment [34]: 0.689
- HazardRatio, ERCC1_Treatment (ERCC1 model, ADENOCARCINOMA, With selected variables): 1.151
